Assay results reported in patent US5306808A, “Peptide derivatives having vasodilating activity” (Takeda Chemical Industries, Ltd., priority 1991, dated 1994).
Where a SMILES comes first, the peptide text is derived from it. Bridges are numbered along the chain shown (N, C = ends). [ ]: non-standard residue; d: D form. tBuAla = CC(C)(C)C[C@H](N)C(=O)O; Nva = CCC[C@H](N)C(=O)O; Abu = CC[C@H](N)C(=O)O

How the values were obtained:
endothelin receptor = test: Assay of affinity for receptor (I125-ET-1 binding to porcine myocardial membrane fraction); conditions: ET-1 = 100
Experimental: A membrane fraction prepared from the porcine heart was diluted to 0.15 mg/ml by using a buffer solution [PBS (pH 7.4) containing 0.5 mM CaCl2, 1.0 mM MgCl2, 0.02% NaN3, 0.1% BSA (fraction V, Sigma), 0.1 mM PMSF and 0.1 μg/ml pepstatin (binding buffer)] for assay, and 100 μl of the resulting suspension of the membrane fraction was poured into each assay tube to use for assay. To this suspension of the membrane fraction were added 2 μl of an endothelin-1 solution labeled with 5 μM radioactive iodine. Further, 3 μl of a test peptide solution was added thereto, followed by maintenance at a temperature of 25° C. for 1 hour. Then, the resulting suspension was diluted with 900 μl of the buffer solution for assay cooled with ice, and thereafter separated into a supernatant and a precipitate by centrifugation at 12,000×g for 10 minutes. Cell membranes and an endothelin receptor embedded therein were contained in the precipitate, and radioactive iodine-labeled endothelin combined with the receptor was also recovered in the precipitate. Accordingly, the amount of radioactive iodine-labeled endothelin combined with the endothelin receptor was determined by measuring the amount of radioactive iodine contained in the precipitate with a gamma-ray counter. Compounds in which the affinity for the endothelin receptor is high and the maximum constriction is not high are antagonists. Contrary to this, compounds in which the affinity for the endothelin receptor is high and the maximum constriction is high are agonists.

porcine coronary artery = format: cell-based; conditions: for Constrictor activity (Relative potency): ET-1 = 100; for Maximum Constriction (% 60 mM KCl): normalized to constriction response to 60 mM KCl
Experimental: Each of helical strips 2 mm×15 mm prepared from the coronary right ramus circumflexus from which the adventitial connective tissues and the endothelial cells were removed was set to each of 4 ml organ baths. Its tension was detected by a force displacement transducer UL-10GR (Minebea), and recorded by a polygraph (NEC Sanei). The organ baths were maintained at 37° C., and filled with a Krebs-Henseleit solution (composition:118 mM NaCl, 4.7 mM KCl, 2.5 mM CaCl2, 1.2 mM KH2 PO4, 25.0 mM NaHCO3, 1.2 mM MgSO4, 10.0 mM glucose) gassed with 95% O2 and 5% CO2.
A tension of 1.25 to 1.5 g was applied to each of the strips, followed by equilibration for 1.5 hours. 60 mM KCl was repeatedly applied thereto at intervals of 30 minutes until the constriction response became constant. After additional equilibration for 1.5 hours, a sample for assay was given. The constriction of the strips was normalized by the constriction response of the individual strips to 60 mM KCl and statistically processed.
(2) As to the antagonist property or the agonist property of the peptide derivatives of present invention to endothelin, the affinity for an endothelin receptor and the constrictor activity to porcine coronary smooth muscles (according to the method described in (1) described above) were assayed. The affinity for the receptor was assayed by the following method.

Compound | Receptor binding activity (Relative potency) (endothelin receptor) | Constrictor activity (Relative potency) (porcine coronary artery) | Maximum Constriction (% 60 mM KCl) (porcine coronary artery)
CC[C@H](NC(=O)[C@H](CC(C)C)NC(=O)[C@H](Cc1c[nH]cn1)NC(=O)[C@@H]1CSSC[C@H](N)C(=O)N[C@@H](CO)C(=O)N[C@H]2CSSC[C@H](NC(=O)[C@H](CCC(=O)O)NC(=O)[C@H](CCCCN)NC(=O)[C@H](CC(=O)O)NC(=O)[C@H](CCSC)NC(=O)[C@H](CC(C)C)NC(=O)[C@H](CO)NC(=O)[C@H](CO)NC2=O)C(=O)N[C@@H](C(C)C)C(=O)N[C@@H](Cc2ccc(O)cc2)C(=O)N[C@@H](Cc2ccccc2)C(=O)N1)C(=O)N[C@H](C(=O)N[C@H](C(=O)N[C@@H](Cc1c[nH]c2ccccc12)C(=O)O)[C@@H](C)CC)[C@@H](C)CC [Example 30, [Abu^18]-ET-1] (H-CSCSSLMDKECVYFCHL[Abu]IIW-OH; disulfide 1-15, 3-11) | 5.0 | < 0.1 | 6 % 60 mM KCl
CCC[C@H](NC(=O)[C@H](CC(C)C)NC(=O)[C@H](Cc1c[nH]cn1)NC(=O)[C@@H]1CSSC[C@H](N)C(=O)N[C@@H](CO)C(=O)N[C@H]2CSSC[C@H](NC(=O)[C@H](CCC(=O)O)NC(=O)[C@H](CCCCN)NC(=O)[C@H](CC(=O)O)NC(=O)[C@H](CCSC)NC(=O)[C@H](CC(C)C)NC(=O)[C@H](CO)NC(=O)[C@H](CO)NC2=O)C(=O)N[C@@H](C(C)C)C(=O)N[C@@H](Cc2ccc(O)cc2)C(=O)N[C@@H](Cc2ccccc2)C(=O)N1)C(=O)N[C@H](C(=O)N[C@H](C(=O)N[C@@H](Cc1c[nH]c2ccccc12)C(=O)O)[C@@H](C)CC)[C@@H](C)CC [Example 31, [Nva^18]-ET-1] (H-CSCSSLMDKECVYFCHL[Nva]IIW-OH; disulfide 1-15, 3-11) | 2.4 | < 0.1 | 2 % 60 mM KCl
CC[C@H](C)[C@H](NC(=O)[C@H](Cc1ccccc1)NC(=O)[C@H](CC(C)C)NC(=O)[C@H](Cc1c[nH]cn1)NC(=O)[C@@H]1CSSC[C@H](N)C(=O)N[C@@H](CO)C(=O)N[C@H]2CSSC[C@H](NC(=O)[C@H](CCC(=O)O)NC(=O)[C@H](CCCCN)NC(=O)[C@H](CC(=O)O)NC(=O)[C@H](CCSC)NC(=O)[C@H](CC(C)C)NC(=O)[C@H](CO)NC(=O)[C@H](CO)NC2=O)C(=O)N[C@@H](C(C)C)C(=O)N[C@@H](Cc2ccc(O)cc2)C(=O)N[C@@H](Cc2ccccc2)C(=O)N1)C(=O)N[C@H](C(=O)N[C@@H](Cc1c[nH]c2ccccc12)C(=O)O)[C@@H](C)CC [Example 33, [Phe^18]-ET-1] (H-CSCSSLMDKECVYFCHLFIIW-OH; disulfide 1-15, 3-11) | 2.4 | < 0.1 | 0 % 60 mM KCl
CC[C@H](C)[C@H](NC(=O)[C@H](CO)NC(=O)[C@H](CC(C)C)NC(=O)[C@H](Cc1c[nH]cn1)NC(=O)[C@@H]1CSSC[C@H](N)C(=O)N[C@@H](CO)C(=O)N[C@H]2CSSC[C@H](NC(=O)[C@H](CCC(=O)O)NC(=O)[C@H](CCCCN)NC(=O)[C@H](CC(=O)O)NC(=O)[C@H](CCSC)NC(=O)[C@H](CC(C)C)NC(=O)[C@H](CO)NC(=O)[C@H](CO)NC2=O)C(=O)N[C@@H](C(C)C)C(=O)N[C@@H](Cc2ccc(O)cc2)C(=O)N[C@@H](Cc2ccccc2)C(=O)N1)C(=O)N[C@H](C(=O)N[C@@H](Cc1c[nH]c2ccccc12)C(=O)O)[C@@H](C)CC [Example 34, [Ser^18]-ET-1] (H-CSCSSLMDKECVYFCHLSIIW-OH; disulfide 1-15, 3-11) | 20.9 | 18 | 79 % 60 mM KCl
CC[C@H](C)[C@H](NC(=O)[C@H](CC(=O)O)NC(=O)[C@H](CC(C)C)NC(=O)[C@H](Cc1c[nH]cn1)NC(=O)[C@@H]1CSSC[C@H](N)C(=O)N[C@@H](CO)C(=O)N[C@@H](CC(C)C)C(=O)N[C@@H](CO)C(=O)N[C@@H](CO)C(=O)N[C@@H](CC(C)C)C(=O)N[C@@H](CCSC)C(=O)N[C@@H](CC(=O)O)C(=O)N[C@@H](CCCCN)C(=O)N[C@@H](CCC(=O)O)C(=O)N[C@@H](CC(C)C)C(=O)N[C@@H](C(C)C)C(=O)N[C@@H](Cc2ccc(O)cc2)C(=O)N[C@@H](Cc2ccccc2)C(=O)N1)C(=O)N[C@H](C(=O)N[C@@H](Cc1c[nH]c2ccccc12)C(=O)O)[C@@H](C)CC [Example 38, [Leu^3,11]-ET-1] (H-CSLSSLMDKELVYFCHLDIIW-OH; disulfide 1-15) | 0.1 | < 0.1 | 10 % 60 mM KCl
CC[C@H](C)[C@H](NC(=O)[C@H](CC(=O)O)NC(=O)[C@H](CC(C)C)NC(=O)[C@H](Cc1c[nH]cn1)NC(=O)[C@@H]1CSSC[C@H](N)C(=O)N[C@@H](CO)C(=O)N[C@@H](C(C)C)C(=O)N[C@@H](CO)C(=O)N[C@@H](CO)C(=O)N[C@@H](CC(C)C)C(=O)N[C@@H](CCSC)C(=O)N[C@@H](CC(=O)O)C(=O)N[C@@H](CCCCN)C(=O)N[C@@H](CCC(=O)O)C(=O)N[C@@H](C(C)C)C(=O)N[C@@H](C(C)C)C(=O)N[C@@H](Cc2ccc(O)cc2)C(=O)N[C@@H](Cc2ccccc2)C(=O)N1)C(=O)N[C@H](C(=O)N[C@@H](Cc1c[nH]c2ccccc12)C(=O)O)[C@@H](C)CC [Example 39, [Val^3,11]-ET-1] (H-CSVSSLMDKEVVYFCHLDIIW-OH; disulfide 1-15) | 0.59 | < 0.1 | 34 % 60 mM KCl
CC[C@H](C)[C@H](NC(=O)[C@H](CC(C)C)NC(=O)[C@H](Cc1c[nH]cn1)NC(=O)[C@@H]1CSSC[C@H](N)C(=O)N[C@@H](CO)C(=O)N[C@H]2CSSC[C@H](NC(=O)[C@H](CCC(=O)O)NC(=O)[C@H](CCCCN)NC(=O)[C@H](CC(=O)O)NC(=O)[C@H](CCSC)NC(=O)[C@H](CC(C)C)NC(=O)[C@H](CO)NC(=O)[C@H](CO)NC2=O)C(=O)N[C@@H](C(C)C)C(=O)N[C@@H](Cc2ccc(O)cc2)C(=O)N[C@@H](Cc2ccccc2)C(=O)N1)C(=O)N[C@H](C(=O)N[C@H](C(=O)N[C@@H](Cc1c[nH]c2ccccc12)C(=O)O)[C@@H](C)CC)[C@@H](C)CC [Example 43, [Ile^18]-ET-1] (H-CSCSSLMDKECVYFCHLIIIW-OH; disulfide 1-15, 3-11) | 3.2 | < 0.1 | 0 % 60 mM KCl
CC[C@H](C)[C@H](NC(=O)[C@H](CC(C)(C)C)NC(=O)[C@H](CC(C)C)NC(=O)[C@H](Cc1c[nH]cn1)NC(=O)[C@@H]1CSSC[C@H](N)C(=O)N[C@@H](CO)C(=O)N[C@H]2CSSC[C@H](NC(=O)[C@H](CCC(=O)O)NC(=O)[C@H](CCCCN)NC(=O)[C@H](CC(=O)O)NC(=O)[C@H](CCSC)NC(=O)[C@H](CC(C)C)NC(=O)[C@H](CO)NC(=O)[C@H](CO)NC2=O)C(=O)N[C@@H](C(C)C)C(=O)N[C@@H](Cc2ccc(O)cc2)C(=O)N[C@@H](Cc2ccccc2)C(=O)N1)C(=O)N[C@H](C(=O)N[C@@H](Cc1c[nH]c2ccccc12)C(=O)O)[C@@H](C)CC [Example 45, [γ-Leu^18]-ET-1] (H-CSCSSLMDKECVYFCHL[tBuAla]IIW-OH; disulfide 1-15, 3-11) | 1.0 | < 0.1 | 3 % 60 mM KCl
CC[C@H](C)[C@H](NC(=O)[C@H](CCC(=O)O)NC(=O)[C@H](CC(C)C)NC(=O)[C@H](Cc1c[nH]cn1)NC(=O)[C@@H]1CSSC[C@H](N)C(=O)N[C@@H](CO)C(=O)N[C@H]2CSSC[C@H](NC(=O)[C@H](CCC(=O)O)NC(=O)[C@H](CCCCN)NC(=O)[C@H](CC(=O)O)NC(=O)[C@H](CCSC)NC(=O)[C@H](CC(C)C)NC(=O)[C@H](CO)NC(=O)[C@H](CO)NC2=O)C(=O)N[C@@H](C(C)C)C(=O)N[C@@H](Cc2ccc(O)cc2)C(=O)N[C@@H](Cc2ccccc2)C(=O)N1)C(=O)N[C@H](C(=O)N[C@@H](Cc1c[nH]c2ccccc12)C(=O)O)[C@@H](C)CC [Example 46, [Glu^18]-ET-1] (H-CSCSSLMDKECVYFCHLEIIW-OH; disulfide 1-15, 3-11) | 3.2 | < 0.1 | 6 % 60 mM KCl
